The experiment deals with T1, human NOX4 (Homo sapiens, UniProt Q9NPH5).
T1 construct: expressed in transfected cells; membrane fraction used
T1 sequence (Q9NPH5 1-578): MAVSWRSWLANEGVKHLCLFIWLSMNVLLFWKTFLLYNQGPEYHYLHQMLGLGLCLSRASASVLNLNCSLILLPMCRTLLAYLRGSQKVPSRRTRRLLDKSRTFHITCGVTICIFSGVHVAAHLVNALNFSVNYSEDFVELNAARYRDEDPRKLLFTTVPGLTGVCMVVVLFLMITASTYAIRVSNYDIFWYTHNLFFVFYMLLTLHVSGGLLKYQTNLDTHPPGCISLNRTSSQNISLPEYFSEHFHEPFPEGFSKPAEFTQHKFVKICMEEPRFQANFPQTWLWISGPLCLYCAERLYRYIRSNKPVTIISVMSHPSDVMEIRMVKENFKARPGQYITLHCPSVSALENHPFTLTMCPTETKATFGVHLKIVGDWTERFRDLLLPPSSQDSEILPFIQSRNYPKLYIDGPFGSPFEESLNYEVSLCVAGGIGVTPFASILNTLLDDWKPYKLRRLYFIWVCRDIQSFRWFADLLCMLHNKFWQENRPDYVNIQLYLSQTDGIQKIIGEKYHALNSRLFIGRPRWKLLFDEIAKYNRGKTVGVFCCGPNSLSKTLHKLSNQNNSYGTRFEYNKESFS
T1 sequence (P13498 1-195 partner): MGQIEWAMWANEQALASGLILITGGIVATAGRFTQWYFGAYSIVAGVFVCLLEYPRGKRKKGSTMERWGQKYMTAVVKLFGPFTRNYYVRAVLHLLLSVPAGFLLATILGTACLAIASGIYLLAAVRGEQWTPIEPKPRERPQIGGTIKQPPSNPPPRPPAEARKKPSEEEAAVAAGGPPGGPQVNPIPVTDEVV
Kind of experiment: Cell free membrane based in vitro NOX4 assay: H2O2 production by membranes expressing human NOX4, measured with Amplex Red. It counts as biochemical. Particulars: for inhibition at 1 µM: 1.0 μM compound, read-out: Percentage inhibition at 1.0 μM; for inhibition at 10 µM: 10.0 μM compound, read-out: Percentage inhibition at 10.0 μM; for IC50: class symbols. In outline:
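IC50 came from concentration-response curves fitted as % of the inhibitor-free maximum. H2O2 formation was monitored for 10 min via Amplex Red/HRP fluorescence (544/590 nm) after NADPH start. Membranes from a stable hNOX4/HEK line had 20 min exposure to inhibitor beforehand at pH 7.4.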

As a reminder, the inhibition is the relative decrease from the control value, in per cent. As usually defined, the IC50 is the midpoint of a concentration-inhibition curve. Low readings indicate higher potency, high ones lower potency. For the compound `Cc1nn(Cc2ccccc2)c2[nH]c(-c3c(F)cccc3F)c(O)c(=O)c12` [Example 76, 1-Benzyl-6-(2,6-difluorophenyl)-5-hydroxy-3-methyl-1H-pyrazolo[3,4-b]pyridin-4(7H)-one], the inhibition at 1 µM came out at 95%, the inhibition at 10 µM worked out at 93.5% and the IC50 is less than 50 nM.
Regarding `Cc1nn(-c2ccccn2)c2[nH]c(-c3ccccc3Cl)c(O)c(=O)c12` [Example 30, 6-(2-Chlorophenyl)-5-hydroxy-3-methyl-1-(pyridin-2-yl)-1,7-dihydro-4H-pyrazolo[3,4-b]pyridin-4-one], the inhibition at 1 µM was determined as 64.1%, the inhibition at 10 µM was 77.3% and the IC50 was more than 150 nM.
Regarding `Cn1nc(C(F)(F)F)c2c(=O)c(O)c(-c3ccc(F)cc3)[nH]c21` [Example 42, 6-(4-Fluorophenyl)-5-hydroxy-1-methyl-3-(trifluoromethyl)-1,7-dihydro-4H-pyrazolo[3,4-b]pyridin-4-one], the inhibition at 1 µM worked out at 86.8%, the inhibition at 10 µM is 96.5% and the IC50 was in the range of 100 to 150 nM.
As to `Cc1nn(C2CCC(F)(F)CC2)c2[nH]c(-c3c(F)cccc3F)c(O)c(=O)c12` [Example 137, 1-(4,4-Difluorocyclohexyl)-6-(2,6-difluorophenyl)-5-hydroxy-3-methyl-1H-pyrazolo[3,4-b]pyridin-4(7H)-one], the inhibition at 1 µM is 89.5%, the inhibition at 10 µM came out at 86.3% and the half-inhibitory concentration (IC50) was in the range of 50 to 100 nM.
With `Cn1nc(CO)c2c(=O)c(O)c(-c3c(F)cccc3F)[nH]c21` [Example 188, 6-(2,6-Difluorophenyl)-5-hydroxy-3-(hydroxymethyl)-1-methyl-1H-pyrazolo[3,4-b]pyridin-4(7H)-one], the inhibition at 1 µM is 96.5%, the inhibition at 10 µM was 100% and the IC50 was 100 to 150 nM.
`Cc1cc2c(=O)c(O)c(-c3ccccc3Cl)[nH]c2s1` [Example 60, 6-(2-Chlorophenyl)-5-hydroxy-2-methylthieno[2,3-b]pyridin-4(7H)-one]: the inhibition at 1 µM is 77%, the inhibition at 10 µM turned out to be 100% and the half-maximal inhibitory concentration (IC50) is more than 150 nM.

Source of the values: patent US20200247800A1, “SUBSTITUTED BICYCLIC HETEROCYCLIC COMPOUNDS AS NADPH OXIDASE INHIBITORS” (Glenmark Pharmaceuticals S.A., priority 2017, published 2020).
